Test results taken from patent US5281626A, “Benzenesulfonamide derivatives” (Eisai Co., Ltd., priority 1990, dated 1994).

Assays:
male SD rats = experiment: Toxicity test, intravenous; format: in vivo; settings: 50 mg/kg intravenously, three male SD rats per group, observed for 3 hours
Description: A small amount of 1N HCl was added to each of the compounds of Examples 4, 6, 7, 8 and 15 to form aqueous solutions. These solutions were each intravenously administered to the groups of three male SD rats of 7 weeks of age in a dose of 50 mg/kg. […] No rat died.

[1] = tested on: phospholipase A2 (PLA2) contained in the membrane fraction of rabbit heart; experiment: Inhibitory activity against phospholipase A2 (PLA2) contained in the membrane fraction of rabbit heart; format: biochemical; settings: CaCl2 added, 37° C., 30 minutes
Description: (§1) A. Inhibitory activity against phospholipase A2 (PLA2) contained in the membrane fraction of rabbit heart or the supernatant fraction thereof (method) An NZW male rabbit was anesthetized by the intravenous administration of pentobarbital sodium to take out its heart. This heart was washed with ice cooled physiological saline to recover a ventricle, followed by the addition of ice-cooled 0.25M sucrose/20 mM tris hydrochloride buffer (pH: 8.0) in an amount of 5 ml per g of the ventricle. The obtained mixture was mashed with a homogenizer in ice water for 30 minutes and centrifuged at 1,000 g for 10 min. The supernatant was further centrifuged at 105,000 g for 60 min. The centrifugation was conducted at 0° to 4° C. The obtained supernatant was used as such as the supernatant fraction for examination. The precipitate was suspended in the same buffer as that described above and used as the membrane fraction for examination. The protein concentrations of these fractions were each adjusted to 5 mg/ml as determined by Lowry method. […] The test tubes of the membrane fraction were kept at 37° C. for 30 minutes for incubation, while those of the supernatant fraction were kept at 37° C. for 5 minutes for incubation. Each incubation was stopped by the addition of 1 ml of Dole reagent. […] The amount of ^14 C was determined with a liquid scintillation counter. Mepacrine was selected as a comparative compound. (Results)

[2] = tested on: phospholipase A2 (PLA2) contained in the supernatant fraction of rabbit heart; experiment: Inhibitory activity against phospholipase A2 (PLA2) contained in the supernatant fraction of rabbit heart; format: biochemical; settings: EGTA added, 37° C., 5 minutes
Description: as §1

[3] = tested on: cardiac infarct size of rat; experiment: Influence on the cardiac infarct size of rat (ligation of the coronary artery); format: in vivo; settings: 1 mg/kg through the tail vein 15 minutes prior to ligation; 3 hours of ligation
Description: B. Influence on the cardiac infarct size of rat
Sixty-one male rats (weight : 220 to 300 g) were made to get myocardial ischemia by the ligation of the coronary artery. After 3 hours from the ligation, hearts were taken out of the rats and cut into round slices to obtain preparations. These preparations were stained with […]. The area unstained therewith was regarded as a cardiac infarction nidus and the area ratio of the nidus to the left ventricle was determined by the image analysis and regarded as the cardiac infarct size.
The cardiac infarct size was reduced as compared with that of the control rat by 21% or 20% by the administration of the compound of Example 4 or 6 through the tail vein in a dose of 1 mg/kg before 15 minutes prior to the ligation of the coronary artery.

Row | SMILES | mortality (male SD rats) | PLA2 -inhibitory activity IC30, membrane fraction [1] [µM] | PLA2 -inhibitory activity IC30, supernatant fraction [2] [µM] | reduction of cardiac infarct size as compared with control rat [3] [%]
1 | CN(C(=O)/C=C/c1ccc(S(C)(=O)=O)cc1)c1ccc(S(=O)(=O)NC2CCCCN(Cc3ccccn3)C2)cc1 (racemic) [Example 8, (±)N-[1-(2-pyridylmethyl)-3-hexamethyleneimino]-4 {N methyl-N-[(E)-3-(4-methylsulfonylphenyl)-2-propenoyl]amino}benzenesulfonamide] | No rat died | 0.029 | > 100 | –
2 | CN(C(=O)/C=C/c1ccc(S(C)(=O)=O)cc1)c1ccc(S(=O)(=O)NC2CCN(Cc3ccccc3)CC2)cc1 [Example 4, N-(1-benzyl-4-piperidyl)-4-(N-methyl [(E)-3-(4-methylsulfonylphenyl)-2-propenoyl]amino}benzenesulfonamide] | No rat died | 0.032 | > 100 | 21
3 | Cc1cccc(CCN(C)S(=O)(=O)c2ccc(N(C)C(=O)/C=C/c3ccc(S(C)(=O)=O)cc3)cc2)n1 [Example 6, N-methyl N-[2-(6-methyl-2-pyridyl)ethyl]-4-{N-methyl-N-[(E)-3-(4-methylsulfonylphenyl)-2-propenoyl]amino}benzenesulfonamide] | No rat died | 0.056 | > 100 | 20
4 | CN(C(=O)/C=C/c1ccc(S(C)(=O)=O)cc1)c1ccc(S(=O)(=O)N2CCCN(CCc3ccccc3)CC2)cc1 [Example 7, (E)-N-methyl-N-{4-[4-(2 phenylethyl)-homopiperazinyl]sulfonylphenyl}-3-(4-methylsulfonylphenyl)-2-propenamide] | No rat died | – | – | –
5 | Cc1cccc(CCNS(=O)(=O)c2ccc(N(C)C(=O)/C=C/c3ccc(S(C)(=O)=O)cc3)cc2)n1 [Example 15, N-[2-(6-methyl-2-pyridyl)ethyl]-4-{N-methyl-N-[(E)-3-(4-methylsulfonylphenyl)-2-propenoyl]amino}benzenesulfonamide] | No rat died | 0.081 | 61 | –
6 | CN(C(=O)/C=C/c1ccc(O)cc1)c1ccc(S(=O)(=O)NC2CCCCCC2)cc1 [Example 86, N-cycloheptyl-4-{N-methyl-N-[(E)-3-(4-hydroxyphenyl)-2-propenoyl]amino}benzenesulfonamide] | – | 0.62 | 46 | –
7 | CCN(CC)CCCC(C)Nc1c2ccc(Cl)cc2nc2ccc(OC)cc12 (stereo not shown) [mepacrine, reference compound] | – | > 100 | > 100 | –
